# Test results: patent US20140187559A1, “INHIBITORS OF THE FIBROBLAST GROWTH FACTOR RECEPTOR” (BLUEPRINT MEDICINES CORPORATION, priority 2012, published 2014)
# How the values were obtained:
# Hep3B xenograft tumors = assay: Hep3B liver cancer cell subcutaneous xenograft model, tumor volume; assay type: in vivo, Mus Musculus
# Protocol: […] female nude mice (Mus Musculus) age 6 to 8 weeks were used. Tumor cell culture and inoculation: Hep3B cells were cultured with EMEM medium (Invitrogen, USA) supplemented with 10% FBS (Gibco, Australia). The cells were harvested in 90% confluence, and the viability was no less than 90%. Mice were implanted subcutaneously (s.c.) with 200 μL of 10×10^6 Hep3B cells in 50% Matrigel in the right flank at the beginning of the study.
# Animal grouping and dosing schedule: Ten days after cell implantation, when tumors reached an average volume of 199 mm^3, 45 mice were selected based on tumor volume and randomly assigned to 5 treatment groups (n=9). The day of randomization was denoted as D0 and the treatment was started from then on.
# (§1) Tumor volume and body weight measurements: Tumor size was measured twice per week in two dimensions using a caliper, and the volume was expressed in mm^3 using the formula: V=0.5 a×b^2 where a and b were the long and short diameters of the tumor, respectively. Body weight was measured at least twice weekly.
# End of in vivo portion: Blood, tumors and livers were collected from 3 mice in each treated group at 4, 12 and 24 hours after the last dose. The left lobe of the liver was collected for pharmacodynamic (PD) studies, and the rest of the liver was stored in formalin for histology. The small tumors were prioritized for use in pharmacokinetic studies. Any remaining tumor was fixed for histological analysis first, and then was snap-frozen for the PD study.
# Hep3B cells = assay: Induction of apoptosis (Caspase-Glo3/7) in Hep3B cells; assay type: cell-based; conditions: 6 hours, FIG. 3
# Protocol: Hep3B cells were seeded at 20 k/well in 96-well white plates in 200 ul of DMEM/5% FBS overnight. The next day compound was added at a final DMSO concentration of 0.1% and incubated for 6 hours. Caspase activity was measured according to manufacture instruction (Caspase-Glo3/7 Assay (Promega)). Briefly, 100 ul of Caspase-Glo3/7 reagent was added to each well and incubated for 1 hour in the dark. Luminescence was measured using EnVision.
# wild type FGFR-1 = target: T1, wild type FGFR-1 (Homo sapiens, UniProt P11362); assay: FGFR-1 wild type assay at Km (Caliper mobility shift); assay type: biochemical; conditions: 400 uM ATP, 25 C, 90 minutes; read-out: FGFR1 IC50
# T1 construct: purchased Carna Biosciences, Inc
# Protocol: (§2) In order to assess the activity of chemical compounds against the relevant kinase of interest, the Caliper LifeSciences electrophoretic mobility shift technology platform is utilized. Fluorescently labeled substrate peptide is incubated in the presence dosed levels of compounds, a set concentration of kinase and of ATP, so that a reflective proportion of the peptide is phosphorylated. At the end of the reaction, the mix of phosphorylated (product) and non-phosphorylated (substrate) peptides are passed through the microfluidic system of the Caliper LabChip® EZ Reader II, under an applied potential difference. The presence of the phosphate group on the product peptide provides a difference in mass and charge between the product peptide and the substrate peptide, resulting in a separation of the substrate and product pools in the sample. As the pools pass the LEDS within the instrument, these pools are detected and resolved as separate peaks. The ratio between these peaks therefore reflects the activity of the chemical matter at that concentration in that well, under those conditions.
# (§3) The reaction was stopped by the addition of 70 ul of Stop buffer (100 mM HEPES pH 7.5, 0.015% Brij 35, 35 mM EDTA and 0.2% of Coating Reagent 3 (Caliper Lifesciences)). The plate was then read on a Caliper EZReader 2 (protocol settings: —1.9 psi, upstream voltage—700, downstream voltage—3000, post sample sip 35 s).
# wild type FGFR-4 = target: T2, wild type FGFR-4 (Homo sapiens, UniProt P22455); assay: FGFR-4 wild type assay at Km (Caliper mobility shift); assay type: biochemical; conditions: for IC50: 400 uM ATP, 25 C, 90 minutes, read-out: FGFR4 IC50; for Ratio FGFR1/FGFR4: [IC50 for FGFR1]/[IC50 for FGFR4]
# T2 construct: purchased Carna Biosciences, Inc
# Protocol: as §2
# as §3, with “LabChip® EZ Reader II” for “EZReader 2”
# [1] = assay type: in vivo; conditions: 100 and 300 mg/kg PO BID, nude mice
# Protocol: as §1
# Body weight change (%) of Hep3B-bearing nude mice: FIG. 8 is a line graph depicting the body weight change (%) during the entire study period.
# FGFR-4 = FGFR-4 (Homo sapiens, UniProt P22455); assay: Crystal structure of compound bound to FGFR-4 (Cys552); assay type: binding; conditions: FIG. 4, FIG. 5
# Chain of FGFR-4 (P22455 22-802): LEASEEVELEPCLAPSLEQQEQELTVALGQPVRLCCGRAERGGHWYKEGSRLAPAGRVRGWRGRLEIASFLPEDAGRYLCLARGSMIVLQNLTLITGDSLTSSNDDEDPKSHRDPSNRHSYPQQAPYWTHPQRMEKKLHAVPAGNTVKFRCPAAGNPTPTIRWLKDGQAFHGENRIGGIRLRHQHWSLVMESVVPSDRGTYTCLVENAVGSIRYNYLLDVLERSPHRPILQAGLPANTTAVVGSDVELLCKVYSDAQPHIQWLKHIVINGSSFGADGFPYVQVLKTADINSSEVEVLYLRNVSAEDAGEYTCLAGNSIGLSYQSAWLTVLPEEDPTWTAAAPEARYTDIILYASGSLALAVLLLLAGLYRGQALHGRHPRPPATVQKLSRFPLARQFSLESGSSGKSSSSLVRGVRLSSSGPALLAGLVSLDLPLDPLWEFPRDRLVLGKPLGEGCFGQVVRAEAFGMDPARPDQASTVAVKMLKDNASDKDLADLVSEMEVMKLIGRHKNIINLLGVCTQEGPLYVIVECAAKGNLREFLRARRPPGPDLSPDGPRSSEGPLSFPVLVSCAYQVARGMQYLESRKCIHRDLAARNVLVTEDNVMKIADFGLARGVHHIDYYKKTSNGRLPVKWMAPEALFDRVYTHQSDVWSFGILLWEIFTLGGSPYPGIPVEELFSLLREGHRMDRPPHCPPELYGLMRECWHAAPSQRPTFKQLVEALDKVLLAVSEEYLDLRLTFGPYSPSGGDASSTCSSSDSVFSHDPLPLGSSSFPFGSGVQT
# T2 sequence (P22455 22-802): as above
# T1 sequence (P11362 22-822): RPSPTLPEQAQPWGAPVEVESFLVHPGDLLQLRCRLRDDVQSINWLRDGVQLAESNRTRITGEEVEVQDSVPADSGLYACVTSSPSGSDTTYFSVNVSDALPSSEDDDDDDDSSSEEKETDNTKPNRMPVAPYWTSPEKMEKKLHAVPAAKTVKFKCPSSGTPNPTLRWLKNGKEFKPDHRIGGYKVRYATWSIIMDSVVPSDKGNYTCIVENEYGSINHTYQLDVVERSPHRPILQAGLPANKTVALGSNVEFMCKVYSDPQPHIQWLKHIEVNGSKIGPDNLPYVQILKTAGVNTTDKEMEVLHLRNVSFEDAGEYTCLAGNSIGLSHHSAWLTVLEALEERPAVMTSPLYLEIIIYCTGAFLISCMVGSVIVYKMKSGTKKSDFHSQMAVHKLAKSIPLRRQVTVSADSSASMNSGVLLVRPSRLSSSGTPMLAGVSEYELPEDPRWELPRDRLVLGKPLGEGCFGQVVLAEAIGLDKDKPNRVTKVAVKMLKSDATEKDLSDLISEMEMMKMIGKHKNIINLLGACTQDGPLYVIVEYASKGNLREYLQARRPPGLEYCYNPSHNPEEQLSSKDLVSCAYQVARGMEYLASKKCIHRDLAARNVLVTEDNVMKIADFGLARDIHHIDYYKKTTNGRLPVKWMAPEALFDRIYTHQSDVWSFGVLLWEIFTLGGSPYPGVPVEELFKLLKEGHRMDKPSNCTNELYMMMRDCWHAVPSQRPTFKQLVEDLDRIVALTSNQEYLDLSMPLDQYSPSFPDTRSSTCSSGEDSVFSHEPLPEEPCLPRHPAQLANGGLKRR
Compound,IC50 (wild type FGFR-1) [nM],IC50 (wild type FGFR-4) [nM],Ratio FGFR1/FGFR4 (wild type FGFR-4),also measured
"CCN1CCN(c2ccc(Nc3cc(N(C)C(=O)Nc4c(Cl)c(OC)cc(OC)c4Cl)ncn3)cc2)CC1 [BGJ398, reference compound]",–,–,–,"tumor volume compared with vehicle group (Hep3B xenograft tumors; 20 mg/kg PO QD, entire study): significant difference in tumor volume between BGJ398 (20 mg/kg PO QD) and vehicle groups was not observed; induction of apoptosis (Caspase activity) (Hep3B cells): induction of apoptosis, although at a higher concentration"
C=CC(=O)N(C)c1ncc2cc(-c3cc(OC)cc(OC)c3)c(=O)n(C)c2n1 [COMPOUND 3],> 1000,10 to 100,A (the ratio is >500),–
C=CC(=O)N(C)c1ncc2nc(-c3cc(OC)cc(OC)c3)c(=O)n(C)c2n1 [COMPOUND 4],> 1000,100 to 1000,B (the ratio is ≧200 and <500),–
C=CC(=O)N(C)c1ncc2cc(-c3c(Cl)c(OC)cc(OC)c3Cl)cnc2n1 [COMPOUND 8],100 to 1000,–,E (the ratio is ≧10 and <50),–
C=CC(=O)N(C)c1ncc2cc(-c3c(Cl)c(OC)cc(OC)c3Cl)c(=O)n(C)c2n1 [COMPOUND 12],10 to 100,–,D (the ratio is ≧50 and <100),–
C=CC(=O)N(C)c1ncc2c(n1)N(C)C(=O)N(c1c(Cl)c(OC)cc(OC)c1Cl)C2 [COMPOUND 14],100 to 1000,10 to 100,–,–
C=CC(=O)Nc1ccccc1Nc1nccc(N2CCN(C(=O)Nc3ccc(C#N)cc3)CC2)n1 [COMPOUND 23],> 1000,100 to 1000,A (the ratio is >500),–
"C=CC(=O)Nc1cccc(C)c1Nc1ncc2cc(-c3c(Cl)c(OC)cc(OC)c3Cl)ccc2n1 [COMPOUND 25, N-(2-((6-(2,6-dichloro-3,5-dimethoxyphenyl)quinazolin-2-yl)amino)-3-methylphenyl)acrylamide]",100 to 1000,–,–,"tumor regression (Hep3B xenograft tumors; 100 mg/kg PO BID): regressed; tumor volume compared with vehicle group (Hep3B xenograft tumors; 100 mg/kg PO BID, Day 4 to Day 19): Statistically significant reduction of tumor volumes; tumor regression (Hep3B xenograft tumors; 300 mg/kg PO BID): almost disappeared; tumor volume compared with vehicle group (Hep3B xenograft tumors; 300 mg/kg PO BID, Day 4 to Day 19): Statistically significant reduction of tumor volumes; induction of apoptosis (Caspase activity) (Hep3B cells): potent induction of apoptosis; tolerability (body weight change) [1]: well tolerated"
C=CC(=O)Nc1cccc(F)c1Nc1ncc2cc(-c3c(Cl)c(OC)cc(OC)c3Cl)ccc2n1 [COMPOUND 27],10 to 100,–,C (the ratio is ≧100 and <200),–
"C=CC(=O)Nc1ccccc1-c1ccn2c(-c3cc(NC(=O)NCC(F)(F)F)cc(OC(C)C)c3)cnc2c1 [COMPOUND 38, N-(2-(3-(3-isopropoxy-5-(3-(2,2,2-trifluoroethyl)ureido)phenyl)imidazo[1,2-a]pyridin-7-yl)phenyl)acrylamide]",> 1000,100 to 1000,E (the ratio is ≧10 and <50),–
"C=CC(=O)Nc1cccc(C)c1Nc1ncc2cc(-c3c(Cl)c(OC)cc(OC)c3Cl)c(=O)n(C)c2n1 [COMPOUND 43, N-(2-((6-(2,6-dichloro-3,5-dimethoxyphenyl)-8-methyl-7-oxo-7,8-dihydropyrido[2,3-d]pyrimidin-2-yl)amino)-3-methylphenyl)acrylamide]",100 to 1000,–,–,–
C=CC(=O)Nc1cccc(C(F)(F)F)c1Nc1ncc2cc(-c3c(Cl)c(OC)cc(OC)c3Cl)ccc2n1 [COMPOUND 51],> 1000,10 to 100,F (the ratio of [IC50 for FGFR1]/[IC50 for FGFR4] is less than 10),–
"CNC(=O)c1cc(Oc2ccc(NC(=O)Nc3ccc(Cl)c(C(F)(F)F)c3)cc2)ccn1 [Sorafenib, reference compound]",–,–,–,"tumor volume compared with vehicle group (Hep3B xenograft tumors; 30 mg/kg PO QD, Day 4 to Day 19): Statistically significant reduction of tumor volumes"

# Further lines, with some results ahead:
IC50 (wild type FGFR-1) [nM],IC50 (wild type FGFR-4) [nM],Ratio FGFR1/FGFR4 (wild type FGFR-4),Compound,also measured
10 to 100,–,B (the ratio is ≧200 and <500),C=CC(=O)Nc1ccccc1Nc1cc2c(cn1)cc(-c1c(Cl)c(OC)cc(OC)c1Cl)c(=O)n2C [COMPOUND 31],–
100 to 1000,–,C (the ratio is ≧100 and <200),C=CC(=O)Nc1ccc(F)c(F)c1Nc1ncc2cc(-c3c(Cl)c(OC)cc(OC)c3Cl)ccc2n1 [COMPOUND 37],–
100 to 1000,–,E (the ratio is ≧10 and <50),C=CC(=O)Nc1cccc(F)c1Nc1cc2c(cn1)cc(-c1c(Cl)c(OC)cc(OC)c1Cl)c(=O)n2C [COMPOUND 46],–
10 to 100,–,B (the ratio is ≧200 and <500),C=CC(=O)Nc1cccc(F)c1Nc1ncc2cc(-c3c(Cl)c(OC)cc(OC)c3Cl)cc(OC)c2n1 [COMPOUND 47],–
100 to 1000,–,E (the ratio is ≧10 and <50),"C=CC(=O)Nc1cccc(C)c1Nc1ncc2c(n1)N(C)C(=O)N(c1c(Cl)c(OC)cc(OC)c1Cl)C2 [COMPOUND 48, N-(2-((6-(2,6-dichloro-3,5-dimethoxyphenyl)-8-methyl-7-oxo-5,6,7,8-tetrahydropyrimido[4,5-d]pyrimidin-2-yl)amino)-3-methylphenyl)acrylamide]",–
100 to 1000,10 to 100,E (the ratio is ≧10 and <50),C=CS(=O)(=O)Nc1cccc(C)c1Nc1ncc2cc(-c3c(Cl)c(OC)cc(OC)c3Cl)ccc2n1 [COMPOUND 49A],–
10 to 100,–,C (the ratio is ≧100 and <200),"C=CC(=O)N(CCCCN(CC)CC)c1ncc2cc(-c3cc(OC)cc(OC)c3)c(NC(=O)NC(C)(C)C)nc2n1 [COMPOUND 52, N-(7-(3-(tert-butyl)ureido)-6-(3,5-dimethoxyphenyl)pyrido[2,3-d]pyrimidin-2-yl)-N-(4-(diethylamino)butyl)acrylamide]",binding site in crystal structure (FGFR-4): binds to the cysteine at residue 552 of FGFR-4
100 to 1000,–,C (the ratio is ≧100 and <200),C=CC(=O)Nc1cc(N2CCOCC2)cc(C)c1Nc1ncc2cc(-c3c(Cl)c(OC)cc(OC)c3Cl)ccc2n1 [COMPOUND 53],–
10 to 100,–,–,"C=CC(=O)N(CCCCN(CC)CC)c1ncc2cc(-c3c(Cl)c(OC)cc(OC)c3Cl)c(NC(=O)NC(C)(C)C)nc2n1 [COMPOUND 55, N-(7-(3-(tert-butyl)ureido)-6-(2,6-dichloro-3,5-dimethoxyphenyl)pyrido[2,3-d]pyrimidin-2-yl)-N-(4-(diethylamino)butyl)acrylamide]",–
